Data as given in ChEMBL document CHEMBL4152360 (Bioorg Med Chem, 2018).

How the values were obtained:
[1] = biological target: Mitogen-activated protein kinase kinase kinase 7 (Homo sapiens) (UniProt O43318); experiment: Inhibition of human TAK1 assessed as enzyme residual activity at 100 nM by radiometric filter binding assay relative to control
[2] = biological target: SRSF protein kinase 1 (Homo sapiens) (UniProt Q96SB4); experiment: Inhibition of human SRPK1 assessed as enzyme residual activity at 100 nM by radiometric filter binding assay relative to control
[3] = biological target: Mitogen-activated protein kinase kinase kinase 11 (Homo sapiens) (UniProt Q16584); experiment: Inhibition of human MLK3 assessed as enzyme residual activity at 100 nM by radiometric filter binding assay relative to control
[4] = biological target: Receptor-interacting serine/threonine-protein kinase 2 (Homo sapiens) (UniProt O43353); experiment: Inhibition of human RIPK2 assessed as enzyme residual activity at 100 nM by radiometric filter binding assay relative to control
[5] = biological target: Dual specificity protein kinase TTK (Homo sapiens) (UniProt P33981); experiment: Inhibition of human TTK assessed as enzyme residual activity at 100 nM by radiometric filter binding assay relative to control
[6] = biological target: Mitogen-activated protein kinase 8 (Homo sapiens) (UniProt P45983); experiment: Inhibition of human JNK1 assessed as enzyme residual activity at 100 nM by radiometric filter binding assay relative to control
[7] = biological target: Vascular endothelial growth factor receptor 1 (Homo sapiens) (UniProt P17948); experiment: Inhibition of human VEGFR1 assessed as enzyme residual activity at 100 nM by radiometric filter binding assay relative to control
[8] = biological target: Dual specificity mitogen-activated protein kinase kinase 1 (Homo sapiens) (UniProt Q02750); experiment: Inhibition of human MKK1 assessed as enzyme residual activity at 100 nM by radiometric filter binding assay relative to control
[9] = biological target: Serine/threonine-protein kinase pim-1 (Homo sapiens) (UniProt P11309); experiment: Inhibition of human PIM1 assessed as enzyme residual activity at 100 nM by radiometric filter binding assay relative to control
Homo sapiens = species on record: Homo sapiens; experiment: Inhibition of human PKA assessed as enzyme residual activity at 100 nM by radiometric filter binding assay relative to control
[10] = biological target: Serine/threonine-protein kinase 3 (Homo sapiens) (UniProt Q13188); experiment: Inhibition of human MST2 assessed as enzyme residual activity at 100 nM by radiometric filter binding assay relative to control
[11] = biological target: Ribosomal protein S6 kinase alpha-1 (Homo sapiens) (UniProt Q15418); experiment: Inhibition of human RSK1 assessed as enzyme residual activity at 100 nM by radiometric filter binding assay relative to control
[12] = biological target: Proto-oncogene tyrosine-protein kinase Src (Homo sapiens) (UniProt P12931); experiment: Inhibition of human SRC assessed as enzyme residual activity at 100 nM by radiometric filter binding assay relative to control
[13] = biological target: RAC-alpha serine/threonine-protein kinase (Homo sapiens) (UniProt P31749); experiment: Inhibition of human PKBa assessed as enzyme residual activity at 100 nM by radiometric filter binding assay relative to control
[14] = biological target: Serine/threonine-protein kinase STK11 (Homo sapiens) (UniProt Q15831); experiment: Inhibition of human LKB1 assessed as enzyme residual activity at 100 nM by radiometric filter binding assay relative to control
[15] = biological target: Serine/threonine-protein kinase N2 (Homo sapiens) (UniProt Q16513); experiment: Inhibition of human PRK2 assessed as enzyme residual activity at 100 nM by radiometric filter binding assay relative to control
[16] = biological target: Calcium/calmodulin-dependent protein kinase type 1 (Homo sapiens) (UniProt Q14012); experiment: Inhibition of human CaMK1alpha assessed as enzyme residual activity at 100 nM by radiometric filter binding assay relative to control
[17] = biological target: 3-phosphoinositide-dependent protein kinase 1 (Homo sapiens) (UniProt O15530); experiment: Inhibition of human PDK1 assessed as enzyme residual activity at 100 nM by radiometric filter binding assay relative to control
[18] = biological target: Ribosomal protein S6 kinase alpha-5 (Homo sapiens) (UniProt O75582); experiment: Inhibition of human MSK1 assessed as enzyme residual activity at 100 nM by radiometric filter binding assay relative to control
[19] = biological target: Aurora kinase B (Homo sapiens) (UniProt Q96GD4); experiment: Inhibition of human AurB assessed as enzyme residual activity at 100 nM by radiometric filter binding assay relative to control
[20] = biological target: Tyrosine-protein kinase SYK (Homo sapiens) (UniProt P43405); experiment: Inhibition of human SYK assessed as enzyme residual activity at 100 nM by radiometric filter binding assay relative to control

Chain of Mitogen-activated protein kinase kinase kinase 11 (Homo sapiens) (Q16584 whole entry, looked up): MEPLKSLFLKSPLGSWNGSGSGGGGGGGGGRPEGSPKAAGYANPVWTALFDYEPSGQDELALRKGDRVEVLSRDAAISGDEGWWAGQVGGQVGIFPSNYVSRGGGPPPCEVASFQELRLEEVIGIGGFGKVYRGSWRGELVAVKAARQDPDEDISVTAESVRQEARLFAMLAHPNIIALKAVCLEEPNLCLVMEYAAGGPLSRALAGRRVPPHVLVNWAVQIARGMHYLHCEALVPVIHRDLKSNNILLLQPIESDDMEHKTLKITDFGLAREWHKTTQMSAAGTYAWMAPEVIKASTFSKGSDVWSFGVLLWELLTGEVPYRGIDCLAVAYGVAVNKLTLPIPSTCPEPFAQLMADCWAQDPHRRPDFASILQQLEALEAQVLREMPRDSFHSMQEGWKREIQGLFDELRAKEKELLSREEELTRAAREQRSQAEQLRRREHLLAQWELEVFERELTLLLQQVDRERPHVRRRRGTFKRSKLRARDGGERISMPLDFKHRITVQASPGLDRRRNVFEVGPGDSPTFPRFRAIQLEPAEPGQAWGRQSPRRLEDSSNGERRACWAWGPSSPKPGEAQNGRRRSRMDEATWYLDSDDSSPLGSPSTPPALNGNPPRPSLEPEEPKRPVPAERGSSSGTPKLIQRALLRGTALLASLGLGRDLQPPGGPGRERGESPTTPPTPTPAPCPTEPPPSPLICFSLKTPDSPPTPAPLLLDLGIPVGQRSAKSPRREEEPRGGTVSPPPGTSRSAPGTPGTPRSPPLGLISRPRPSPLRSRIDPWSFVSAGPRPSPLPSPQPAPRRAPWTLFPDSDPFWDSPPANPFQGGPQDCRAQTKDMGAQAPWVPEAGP
Chain of Proto-oncogene tyrosine-protein kinase Src (Homo sapiens) (P12931 2-536 limits assumed): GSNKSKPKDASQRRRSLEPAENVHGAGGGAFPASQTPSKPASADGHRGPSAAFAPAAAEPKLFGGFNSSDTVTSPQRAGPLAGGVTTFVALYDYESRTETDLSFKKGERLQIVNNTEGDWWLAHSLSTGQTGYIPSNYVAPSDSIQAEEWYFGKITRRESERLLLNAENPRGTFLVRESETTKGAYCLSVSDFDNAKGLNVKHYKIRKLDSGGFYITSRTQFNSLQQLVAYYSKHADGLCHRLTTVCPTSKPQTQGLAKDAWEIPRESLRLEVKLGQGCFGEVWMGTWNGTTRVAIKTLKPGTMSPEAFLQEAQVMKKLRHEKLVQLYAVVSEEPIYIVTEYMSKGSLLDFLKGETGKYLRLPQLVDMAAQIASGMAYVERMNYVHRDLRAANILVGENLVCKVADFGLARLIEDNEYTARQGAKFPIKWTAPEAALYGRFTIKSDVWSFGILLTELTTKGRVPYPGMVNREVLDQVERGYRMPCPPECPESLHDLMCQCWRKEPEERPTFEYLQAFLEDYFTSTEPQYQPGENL
Chain of Serine/threonine-protein kinase STK11 (Homo sapiens) (Q15831 whole entry): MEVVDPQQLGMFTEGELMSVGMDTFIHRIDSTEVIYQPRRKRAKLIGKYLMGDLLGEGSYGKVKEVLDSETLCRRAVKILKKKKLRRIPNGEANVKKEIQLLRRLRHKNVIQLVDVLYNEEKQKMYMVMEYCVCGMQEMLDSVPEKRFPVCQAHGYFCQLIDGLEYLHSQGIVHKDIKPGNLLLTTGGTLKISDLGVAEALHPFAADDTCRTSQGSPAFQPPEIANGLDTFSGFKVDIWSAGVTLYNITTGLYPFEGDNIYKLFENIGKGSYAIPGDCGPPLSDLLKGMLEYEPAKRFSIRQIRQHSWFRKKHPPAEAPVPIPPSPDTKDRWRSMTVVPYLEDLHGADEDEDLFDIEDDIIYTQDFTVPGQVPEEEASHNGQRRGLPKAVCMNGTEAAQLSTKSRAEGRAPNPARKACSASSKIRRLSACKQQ
Chain of Ribosomal protein S6 kinase alpha-1 (Homo sapiens) (Q15418 whole entry): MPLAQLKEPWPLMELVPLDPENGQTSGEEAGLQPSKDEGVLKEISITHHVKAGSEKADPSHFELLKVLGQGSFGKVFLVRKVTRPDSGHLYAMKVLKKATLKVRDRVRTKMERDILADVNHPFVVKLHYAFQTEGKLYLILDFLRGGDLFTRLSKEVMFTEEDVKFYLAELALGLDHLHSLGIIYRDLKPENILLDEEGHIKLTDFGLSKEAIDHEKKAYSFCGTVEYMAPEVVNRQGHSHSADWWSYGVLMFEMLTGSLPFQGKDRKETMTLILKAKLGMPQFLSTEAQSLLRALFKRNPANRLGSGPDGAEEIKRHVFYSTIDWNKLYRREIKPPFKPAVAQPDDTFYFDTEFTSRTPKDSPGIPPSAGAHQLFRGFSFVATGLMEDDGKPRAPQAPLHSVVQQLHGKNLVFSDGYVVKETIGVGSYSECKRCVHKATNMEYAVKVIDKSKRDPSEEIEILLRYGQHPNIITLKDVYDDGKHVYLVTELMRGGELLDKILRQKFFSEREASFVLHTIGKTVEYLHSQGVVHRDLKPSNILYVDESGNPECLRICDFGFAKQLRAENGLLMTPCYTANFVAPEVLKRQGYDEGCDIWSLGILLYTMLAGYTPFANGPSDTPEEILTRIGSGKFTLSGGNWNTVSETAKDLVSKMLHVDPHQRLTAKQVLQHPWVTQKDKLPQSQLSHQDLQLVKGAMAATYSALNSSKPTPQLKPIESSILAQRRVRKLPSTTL
Chain of Serine/threonine-protein kinase 3 (Homo sapiens) (Q13188 whole entry): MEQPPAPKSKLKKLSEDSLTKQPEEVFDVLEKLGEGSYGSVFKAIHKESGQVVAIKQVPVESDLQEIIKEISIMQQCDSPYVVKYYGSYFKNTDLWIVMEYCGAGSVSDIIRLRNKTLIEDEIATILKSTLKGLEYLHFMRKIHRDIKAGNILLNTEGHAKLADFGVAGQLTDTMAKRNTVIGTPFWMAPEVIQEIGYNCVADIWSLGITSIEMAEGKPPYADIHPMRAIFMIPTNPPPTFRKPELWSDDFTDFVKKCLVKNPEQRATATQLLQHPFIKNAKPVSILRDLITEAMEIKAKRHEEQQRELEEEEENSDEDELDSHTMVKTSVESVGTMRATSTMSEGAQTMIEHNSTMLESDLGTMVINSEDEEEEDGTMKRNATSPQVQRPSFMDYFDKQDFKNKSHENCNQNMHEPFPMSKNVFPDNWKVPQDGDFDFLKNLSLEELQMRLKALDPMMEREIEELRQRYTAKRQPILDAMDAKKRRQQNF
Chain of Serine/threonine-protein kinase N2 (Homo sapiens) (Q16513 whole entry, looked up): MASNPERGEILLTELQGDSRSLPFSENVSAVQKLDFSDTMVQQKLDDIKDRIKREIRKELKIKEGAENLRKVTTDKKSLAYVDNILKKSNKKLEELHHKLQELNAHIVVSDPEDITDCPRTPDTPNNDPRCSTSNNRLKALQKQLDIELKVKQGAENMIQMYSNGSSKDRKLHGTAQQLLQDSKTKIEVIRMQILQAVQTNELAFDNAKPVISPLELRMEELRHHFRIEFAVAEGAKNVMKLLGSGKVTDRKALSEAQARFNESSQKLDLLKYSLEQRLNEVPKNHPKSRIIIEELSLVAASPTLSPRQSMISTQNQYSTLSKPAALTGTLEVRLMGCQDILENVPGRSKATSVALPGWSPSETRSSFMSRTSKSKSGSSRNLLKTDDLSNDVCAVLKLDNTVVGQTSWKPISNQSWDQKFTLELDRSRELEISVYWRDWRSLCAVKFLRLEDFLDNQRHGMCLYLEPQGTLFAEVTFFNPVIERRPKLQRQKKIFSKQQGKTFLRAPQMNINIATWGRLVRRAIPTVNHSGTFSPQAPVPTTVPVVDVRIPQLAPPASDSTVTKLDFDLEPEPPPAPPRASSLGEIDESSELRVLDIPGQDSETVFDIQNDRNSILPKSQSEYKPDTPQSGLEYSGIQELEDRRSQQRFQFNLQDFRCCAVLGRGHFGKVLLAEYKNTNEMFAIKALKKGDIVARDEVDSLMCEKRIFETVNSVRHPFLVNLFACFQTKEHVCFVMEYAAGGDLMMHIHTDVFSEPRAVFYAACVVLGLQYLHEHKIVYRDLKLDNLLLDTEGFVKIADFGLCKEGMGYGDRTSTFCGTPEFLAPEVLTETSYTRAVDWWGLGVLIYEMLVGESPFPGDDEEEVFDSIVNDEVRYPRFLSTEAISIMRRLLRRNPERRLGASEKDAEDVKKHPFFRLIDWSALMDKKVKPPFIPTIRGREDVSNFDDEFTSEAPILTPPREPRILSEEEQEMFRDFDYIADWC
Chain of Receptor-interacting serine/threonine-protein kinase 2 (Homo sapiens) (O43353 whole entry): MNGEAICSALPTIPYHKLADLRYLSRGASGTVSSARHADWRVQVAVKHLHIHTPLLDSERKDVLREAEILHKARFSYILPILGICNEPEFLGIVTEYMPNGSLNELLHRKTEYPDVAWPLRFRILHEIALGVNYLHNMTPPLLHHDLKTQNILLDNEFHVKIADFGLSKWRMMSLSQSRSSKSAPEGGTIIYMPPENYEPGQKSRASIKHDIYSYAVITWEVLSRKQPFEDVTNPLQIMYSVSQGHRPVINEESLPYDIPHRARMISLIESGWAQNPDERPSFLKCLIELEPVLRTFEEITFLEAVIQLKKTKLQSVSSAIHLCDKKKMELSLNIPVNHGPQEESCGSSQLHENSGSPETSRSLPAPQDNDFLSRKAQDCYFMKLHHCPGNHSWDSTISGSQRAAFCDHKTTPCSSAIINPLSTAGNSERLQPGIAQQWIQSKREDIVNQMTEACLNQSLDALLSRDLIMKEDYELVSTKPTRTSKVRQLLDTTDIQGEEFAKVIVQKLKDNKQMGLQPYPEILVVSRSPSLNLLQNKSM
Chain of Aurora kinase B (Homo sapiens) (Q96GD4 whole entry): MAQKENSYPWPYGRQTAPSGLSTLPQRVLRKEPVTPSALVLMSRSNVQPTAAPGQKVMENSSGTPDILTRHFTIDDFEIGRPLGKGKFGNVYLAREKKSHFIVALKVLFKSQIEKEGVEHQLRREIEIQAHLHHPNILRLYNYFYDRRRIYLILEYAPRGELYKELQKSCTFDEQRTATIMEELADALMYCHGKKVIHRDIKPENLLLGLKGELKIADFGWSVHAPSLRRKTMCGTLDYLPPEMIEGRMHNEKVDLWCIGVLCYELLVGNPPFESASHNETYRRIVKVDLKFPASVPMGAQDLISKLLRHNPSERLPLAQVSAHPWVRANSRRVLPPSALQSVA

Structure (SMILES): NCCCC[C@@H](NC(=O)[C@@H](CC(=O)O)NC(=O)[C@@H](CC(=O)O)NC(=O)[C@@H](CC(=O)O)NC(=O)[C@@H](CC(=O)O)NC(=O)[C@@H](CC(=O)O)NC(=O)[C@@H](CC(=O)O)NC(=O)CCCCCNC(=O)CCC(=O)Nc1ncc(-c2ccc(C(=O)O)cc2)s1)C(=O)O
- Activity [1]: 62%
- Activity [2]: 69%
- Activity [3]: 69%
- Activity [4]: 85%
- Activity [5]: 85%
- Activity [6]: 86%
- Activity [7]: 87%
- Activity [8]: 88%
- Activity [9]: 91%
- Activity (Homo sapiens): 92%
- Activity [10]: 101%
- Activity [11]: 101%
- Activity [12]: 103%
- Activity [13]: 105%
- Activity [14]: 107%
- Activity [15]: 109%
- Activity [16]: 111%
- Activity [17]: 111%
- Activity [18]: 115%
- Activity [19]: 129%
- Activity [20]: 122%
